{"source": "ChEMBL document CHEMBL3233012", "about": "“Synthesis, antimicrobial and cytotoxic activities of pyrimidinyl benzoxazole, benzothiazole and benzimidazole” (Eur J Med Chem, 2014)", "note": "Active and inactive are the calls of the source. The rule behind the calls is not given here."}
{"test_system": "Escherichia coli", "assay": "Antimicrobial activity against Escherichia coli at 100 ug/well after 24 hrs by agar well diffusion method", "type": "functional", "settings": "read-out: DIZ", "units": {"zone of inhibition at 100 µg/disc": "mm"}}
{"smiles": "Cc1cc(Nc2nc3ccccc3s2)nc(SCc2nc3ccccc3s2)n1", "zone of inhibition at 100 µg/disc": 23}
{"smiles": "Cc1cc(Cl)nc(SCc2nc3ccccc3[nH]2)n1", "zone of inhibition at 100 µg/disc": 16}
{"smiles": "Cc1cc(Sc2nc3ccccc3s2)nc(SCc2nc3ccccc3s2)n1", "zone of inhibition at 100 µg/disc": 20}
{"test_system": "Penicillium chrysogenum", "assay": "Antimicrobial activity against Penicillium chrysogenum at 100 ug/well after 48 hrs by agar well diffusion method", "type": "functional", "settings": "read-out: DIZ", "units": {"zone of inhibition at 100 µg/disc": "mm"}}
{"smiles": "Cc1cc(Nc2nc3ccccc3s2)nc(SCc2nc3ccccc3s2)n1", "zone of inhibition at 100 µg/disc": 32}
{"smiles": "Cc1cc(Cl)nc(SCc2nc3ccccc3[nH]2)n1", "zone of inhibition at 100 µg/disc": 12}
{"smiles": "Cc1cc(Sc2nc3ccccc3s2)nc(SCc2nc3ccccc3s2)n1", "zone of inhibition at 100 µg/disc": 15}
{"test_system": "Escherichia coli", "assay": "Antimicrobial activity against Escherichia coli at 25 ug/well after 24 hrs by agar well diffusion method", "type": "functional", "settings": "read-out: DIZ", "units": {"zone of inhibition at 25 µg/disc": "mm"}}
{"smiles": "Cc1cc(Nc2nc3ccccc3s2)nc(SCc2nc3ccccc3s2)n1", "zone of inhibition at 25 µg/disc": 15}
{"smiles": "Cc1cc(Cl)nc(SCc2nc3ccccc3[nH]2)n1", "zone of inhibition at 25 µg/disc": 8}
{"smiles": "Cc1cc(Sc2nc3ccccc3s2)nc(SCc2nc3ccccc3s2)n1", "zone of inhibition at 25 µg/disc": 14}
{"test_system": "A549", "assay": "Cytotoxicity against human A549 cells assessed as reduction in cell viability up to 200 uM after 20 hrs by MTT assay", "type": "functional, cell-based", "settings": "not given"}
{"smiles": "Cc1cc(Cl)nc(SCc2nc3ccccc3[nH]2)n1", "Activity": "inactive"}
{"test_system": "Pseudomonas aeruginosa", "assay": "Antimicrobial activity against Pseudomonas aeruginosa at 100 ug/well after 24 hrs by agar well diffusion method", "type": "functional", "settings": "read-out: DIZ", "units": {"zone of inhibition at 100 µg/disc": "mm"}}
{"smiles": "Cc1cc(Nc2nc3ccccc3s2)nc(SCc2nc3ccccc3s2)n1", "zone of inhibition at 100 µg/disc": 18}
{"smiles": "Cc1cc(Cl)nc(SCc2nc3ccccc3[nH]2)n1", "zone of inhibition at 100 µg/disc": 12}
{"smiles": "Cc1cc(Sc2nc3ccccc3s2)nc(SCc2nc3ccccc3s2)n1", "zone of inhibition at 100 µg/disc": 16}
{"test_system": "Escherichia coli", "assay": "Antimicrobial activity against Escherichia coli at 50 ug/well after 24 hrs by agar well diffusion method", "type": "functional", "settings": "read-out: DIZ", "units": {"zone of inhibition at 50 µg/disc": "mm"}}
{"smiles": "Cc1cc(Nc2nc3ccccc3s2)nc(SCc2nc3ccccc3s2)n1", "zone of inhibition at 50 µg/disc": 20}
{"smiles": "Cc1cc(Cl)nc(SCc2nc3ccccc3[nH]2)n1", "zone of inhibition at 50 µg/disc": 13}
{"smiles": "Cc1cc(Sc2nc3ccccc3s2)nc(SCc2nc3ccccc3s2)n1", "zone of inhibition at 50 µg/disc": 17}
{"test_system": "Aspergillus niger", "assay": "Antimicrobial activity against Aspergillus niger at 50 ug/well after 48 hrs by agar well diffusion method", "type": "functional", "settings": "read-out: DIZ", "units": {"zone of inhibition at 50 µg/disc": "mm"}}
{"smiles": "Cc1cc(Nc2nc3ccccc3s2)nc(SCc2nc3ccccc3s2)n1", "zone of inhibition at 50 µg/disc": 19}
{"smiles": "Cc1cc(Cl)nc(SCc2nc3ccccc3[nH]2)n1", "zone of inhibition at 50 µg/disc": 9}
{"smiles": "Cc1cc(Sc2nc3ccccc3s2)nc(SCc2nc3ccccc3s2)n1", "zone of inhibition at 50 µg/disc": 12}
{"test_system": "Penicillium chrysogenum", "assay": "Antimicrobial activity against Penicillium chrysogenum at 25 ug/well after 48 hrs by agar well diffusion method", "type": "functional", "settings": "read-out: DIZ", "units": {"zone of inhibition at 25 µg/disc": "mm"}}
{"smiles": "Cc1cc(Nc2nc3ccccc3s2)nc(SCc2nc3ccccc3s2)n1", "zone of inhibition at 25 µg/disc": 27}
{"smiles": "Cc1cc(Cl)nc(SCc2nc3ccccc3[nH]2)n1", "zone of inhibition at 25 µg/disc": 8}
{"smiles": "Cc1cc(Sc2nc3ccccc3s2)nc(SCc2nc3ccccc3s2)n1", "zone of inhibition at 25 µg/disc": 12}
{"test_system": "Penicillium chrysogenum", "assay": "Antimicrobial activity against Penicillium chrysogenum at 50 ug/well after 48 hrs by agar well diffusion method", "type": "functional", "settings": "read-out: DIZ", "units": {"zone of inhibition at 50 µg/disc": "mm"}}
{"smiles": "Cc1cc(Nc2nc3ccccc3s2)nc(SCc2nc3ccccc3s2)n1", "zone of inhibition at 50 µg/disc": 29}
{"smiles": "Cc1cc(Cl)nc(SCc2nc3ccccc3[nH]2)n1", "zone of inhibition at 50 µg/disc": 10}
{"smiles": "Cc1cc(Sc2nc3ccccc3s2)nc(SCc2nc3ccccc3s2)n1", "zone of inhibition at 50 µg/disc": 13}
{"test_system": "Aspergillus niger", "assay": "Antimicrobial activity against Aspergillus niger at 25 ug/well after 48 hrs by agar well diffusion method", "type": "functional", "settings": "read-out: DIZ", "units": {"zone of inhibition at 25 µg/disc": "mm"}}
{"smiles": "Cc1cc(Nc2nc3ccccc3s2)nc(SCc2nc3ccccc3s2)n1", "zone of inhibition at 25 µg/disc": 17}
{"smiles": "Cc1cc(Cl)nc(SCc2nc3ccccc3[nH]2)n1", "zone of inhibition at 25 µg/disc": 7}
{"smiles": "Cc1cc(Sc2nc3ccccc3s2)nc(SCc2nc3ccccc3s2)n1", "zone of inhibition at 25 µg/disc": 10}
{"test_system": "Staphylococcus aureus", "assay": "Antimicrobial activity against Staphylococcus aureus at 100 ug/well after 24 hrs by agar well diffusion method", "type": "functional", "settings": "read-out: DIZ", "units": {"zone of inhibition at 100 µg/disc": "mm"}}
{"smiles": "Cc1cc(Nc2nc3ccccc3s2)nc(SCc2nc3ccccc3s2)n1", "zone of inhibition at 100 µg/disc": 18}
{"smiles": "Cc1cc(Cl)nc(SCc2nc3ccccc3[nH]2)n1", "zone of inhibition at 100 µg/disc": 12}
{"smiles": "Cc1cc(Sc2nc3ccccc3s2)nc(SCc2nc3ccccc3s2)n1", "zone of inhibition at 100 µg/disc": 16}
{"test_system": "Staphylococcus aureus", "assay": "Antimicrobial activity against Staphylococcus aureus at 25 ug/well after 24 hrs by agar well diffusion method", "type": "functional", "settings": "read-out: DIZ", "units": {"zone of inhibition at 25 µg/disc": "mm"}}
{"smiles": "Cc1cc(Nc2nc3ccccc3s2)nc(SCc2nc3ccccc3s2)n1", "zone of inhibition at 25 µg/disc": 13}
{"smiles": "Cc1cc(Cl)nc(SCc2nc3ccccc3[nH]2)n1", "zone of inhibition at 25 µg/disc": 8}
{"smiles": "Cc1cc(Sc2nc3ccccc3s2)nc(SCc2nc3ccccc3s2)n1", "zone of inhibition at 25 µg/disc": 10}
{"test_system": "Pseudomonas aeruginosa", "assay": "Antimicrobial activity against Pseudomonas aeruginosa at 25 ug/well after 24 hrs by agar well diffusion method", "type": "functional", "settings": "read-out: DIZ", "units": {"zone of inhibition at 25 µg/disc": "mm"}}
{"smiles": "Cc1cc(Nc2nc3ccccc3s2)nc(SCc2nc3ccccc3s2)n1", "zone of inhibition at 25 µg/disc": 14}
{"smiles": "Cc1cc(Cl)nc(SCc2nc3ccccc3[nH]2)n1", "zone of inhibition at 25 µg/disc": 8}
{"smiles": "Cc1cc(Sc2nc3ccccc3s2)nc(SCc2nc3ccccc3s2)n1", "zone of inhibition at 25 µg/disc": 13}
{"test_system": "Aspergillus niger", "assay": "Antimicrobial activity against Aspergillus niger at 100 ug/well after 48 hrs by agar well diffusion method", "type": "functional", "settings": "read-out: DIZ", "units": {"zone of inhibition at 100 µg/disc": "mm"}}
{"smiles": "Cc1cc(Nc2nc3ccccc3s2)nc(SCc2nc3ccccc3s2)n1", "zone of inhibition at 100 µg/disc": 21}
{"smiles": "Cc1cc(Cl)nc(SCc2nc3ccccc3[nH]2)n1", "zone of inhibition at 100 µg/disc": 11}
{"smiles": "Cc1cc(Sc2nc3ccccc3s2)nc(SCc2nc3ccccc3s2)n1", "zone of inhibition at 100 µg/disc": 15}
{"test_system": "A549", "assay": "(§1) Cytotoxicity against human A549 cells assessed as reduction in cell viability after 20 hrs by MTT assay", "type": "functional, cell-based", "settings": "not given"}
{"smiles": "Cc1cc(Nc2nc3ccccc3s2)nc(SCc2nc3ccccc3s2)n1", "inhibition": "Dose-dependent effect"}
{"smiles": "Cc1cc(Sc2nc3ccccc3s2)nc(SCc2nc3ccccc3s2)n1", "inhibition": "Dose-dependent effect"}
{"test_system": "A549", "assay": "as §1", "type": "functional, cell-based", "settings": "A549, 20 h", "units": {"IC50": "µM"}}
{"smiles": "Cc1cc(Nc2nc3ccccc3s2)nc(SCc2nc3ccccc3s2)n1", "IC50": 10.5}
{"smiles": "Cc1cc(Sc2nc3ccccc3s2)nc(SCc2nc3ccccc3s2)n1", "IC50": 70}
{"test_system": "Pseudomonas aeruginosa", "assay": "Antimicrobial activity against Pseudomonas aeruginosa at 50 ug/well after 24 hrs by agar well diffusion method", "type": "functional", "settings": "read-out: DIZ", "units": {"zone of inhibition at 50 µg/disc": "mm"}}
{"smiles": "Cc1cc(Nc2nc3ccccc3s2)nc(SCc2nc3ccccc3s2)n1", "zone of inhibition at 50 µg/disc": 17}
{"smiles": "Cc1cc(Cl)nc(SCc2nc3ccccc3[nH]2)n1", "zone of inhibition at 50 µg/disc": 10}
{"smiles": "Cc1cc(Sc2nc3ccccc3s2)nc(SCc2nc3ccccc3s2)n1", "zone of inhibition at 50 µg/disc": 15}
{"test_system": "Staphylococcus aureus", "assay": "Antimicrobial activity against Staphylococcus aureus at 50 ug/well after 24 hrs by agar well diffusion method", "type": "functional", "settings": "read-out: DIZ", "units": {"zone of inhibition at 50 µg/disc": "mm"}}
{"smiles": "Cc1cc(Nc2nc3ccccc3s2)nc(SCc2nc3ccccc3s2)n1", "zone of inhibition at 50 µg/disc": 16}
{"smiles": "Cc1cc(Cl)nc(SCc2nc3ccccc3[nH]2)n1", "zone of inhibition at 50 µg/disc": 10}
{"smiles": "Cc1cc(Sc2nc3ccccc3s2)nc(SCc2nc3ccccc3s2)n1", "zone of inhibition at 50 µg/disc": 12}
